Here are results for 31 compounds from patent US7935722B2 (Eli Lilly and Company, priority 2005, dated 2011).

As usually defined, the Ki is a measure of affinity in units of concentration, obtained from inhibition or displacement. For orientation: EC50 means the concentration that produces a half-maximal response. Usually melting point stands for the temperature of the solid-liquid transition.

Data set [1] concerns the target T1, human AR (androgen receptor) (Homo sapiens, UniProt P10275).
T1 construct: expressed in transfected cells; host or cells: 293 cells (293-AR lysate)
T1 sequence (P10275 1-920): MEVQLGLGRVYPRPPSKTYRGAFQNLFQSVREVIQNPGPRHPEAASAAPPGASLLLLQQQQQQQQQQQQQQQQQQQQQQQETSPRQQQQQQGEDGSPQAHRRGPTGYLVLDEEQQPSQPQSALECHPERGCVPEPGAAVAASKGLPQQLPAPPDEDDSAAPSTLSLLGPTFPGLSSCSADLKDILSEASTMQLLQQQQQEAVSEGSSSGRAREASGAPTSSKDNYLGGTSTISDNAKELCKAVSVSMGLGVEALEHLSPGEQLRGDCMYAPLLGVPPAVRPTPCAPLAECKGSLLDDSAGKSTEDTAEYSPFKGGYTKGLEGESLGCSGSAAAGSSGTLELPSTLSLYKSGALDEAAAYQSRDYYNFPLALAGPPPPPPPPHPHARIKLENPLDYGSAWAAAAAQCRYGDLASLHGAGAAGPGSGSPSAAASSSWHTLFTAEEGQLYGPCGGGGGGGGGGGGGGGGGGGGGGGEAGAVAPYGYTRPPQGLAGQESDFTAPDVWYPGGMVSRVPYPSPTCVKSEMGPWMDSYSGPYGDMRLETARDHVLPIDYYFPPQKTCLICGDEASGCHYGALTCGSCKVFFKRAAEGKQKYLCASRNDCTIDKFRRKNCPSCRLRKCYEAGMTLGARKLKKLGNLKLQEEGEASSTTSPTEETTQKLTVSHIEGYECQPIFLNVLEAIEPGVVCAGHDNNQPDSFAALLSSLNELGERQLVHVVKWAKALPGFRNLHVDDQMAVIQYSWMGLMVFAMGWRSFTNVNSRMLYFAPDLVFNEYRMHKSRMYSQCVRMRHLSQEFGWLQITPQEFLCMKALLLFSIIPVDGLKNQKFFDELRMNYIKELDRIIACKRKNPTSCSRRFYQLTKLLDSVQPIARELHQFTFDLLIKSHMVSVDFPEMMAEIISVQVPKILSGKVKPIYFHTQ
The experiment in a line: Steroid hormone nuclear receptor binding assay, AR binding. Put shortly: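 Competition binding with lysates of 293 cells overexpressing human AR, [3H]-methyltrienolone tracer, compounds from about 0.01 nM to 10 μM, overnight at 4 °C; non-specific binding set with 500 nM methyltrienolone. Bound tracer counted by scintillation after charcoal-dextran separation; IC50 converted to Ki by Cheng-Prusoff using Kd from saturation binding.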

Data set [2] addresses T2, human androgen receptor (AR) (Homo sapiens, UniProt P10275).
T2 construct: expressed in transfected cells; host or cells: mouse myoblast C2C12 cells, transiently co-transfected
T2 sequence (P10275 1-920): T1 sequence (P10275 1-920)
The experiment in a line: C2C12 AR/ARE reporter assay. It is filed as cell-based. The conditions noted are these: for Emax: C2C12, read-out: C2C12 % Efficacy. The procedure, abridged: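 Mouse C2C12 myoblasts co-transfected with AR/ARE reporter were plated in charcoal-stripped serum and treated for 48 h with compound from about 0.01 nM to 10 μM. Luciferase activity gave EC50 by 4-parameter logistic fit. Efficacy is expressed as % of maximal stimulation by 10 nM methyltrienolone.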
(In general: In a reporter assay the amount or activity of a reporter protein is the signal.)

Like-named read-outs stand apart in the source and are kept apart here.

`CC(C)C(=O)NC1CCc2c(c3cc(Br)ccc3n2Cc2cccc(F)c2)C1` (centres unmarked) [Example 1, N-[9-(3-Fluorobenzyl)-6-bromo-2,3,4,9-tetrahydro-1H-carbazol-3-yl]isobutyramide] gave a melting point of 177 to 179 °C. Besides, the Ki in data set [1] (read-out: AR binding Ki, average of n trials) was determined as 2.6 nM. Also, the EC50 in data set [2] (read-out: C2C12 EC50, C2C12 AR/ARE reporter assay, average of n trials) was 2.3 nM.

As to `CC(C)C(=O)NC1CCc2c(c3ccccc3n2Cc2ccccc2)C1` (centres unmarked) [Example 2], the melting point was in the range of 191 to 193 °C. Besides, the affinity in data set [1], expressed as Ki, was 17.7 nM. For the same compound, in data set [2], the concentration for a half-maximal effect (EC50) was 313 nM and the Emax is 59.4%.

The compound `CC(C)C(=O)NC1CCc2c(c3ccccc3n2Cc2cccc(F)c2)C1` (centres unmarked) [Example 3] came in with a melting point of 170 to 172 °C. Also, in data set [1], the Ki came out at 10.1 nM. For the same compound, in data set [2], a half-maximal effect (EC50) was put at 194 nM and the Emax was 66.4%.

For the compound `CC(C)C(=O)NC1CCc2c(c3cc(F)ccc3n2Cc2ccccc2Cl)C1` (centres unmarked) [Example 5], the melting point was 155 to 157 °C. In data set [1], this compound returned a Ki of 24.6 nM. Further, in data set [2], the Emax is 80.3%.

`COc1ccccc1Cn1c2c(c3cc(F)ccc31)CC(NC(=O)C(C)C)CC2` (centres unmarked) [Example 6]: the melting point lay in the range of 196 to 198 °C. In data set [1], affinity was put at a Ki of 156 nM. In addition, in data set [2], the EC50 is 1770 nM and the Emax was determined as 49.7%.

Turning to `CC(C)C(=O)NC1CCc2c(c3cc(F)ccc3n2Cc2ccccc2C#N)C1` (centres unmarked) [Example 7], the melting point lay in the range of 164 to 167 °C. In data set [1], this compound registered a Ki of 99.6 nM. For the same compound, the Emax in data set [2] worked out at 35.8%.

In turn, `CC(C)C(=O)NC1CCc2c(c3cc(F)ccc3n2Cc2cccc(F)c2)C1` (centres unmarked) [Example 8] had a melting point of 181 to 184 °C. In data set [1], this compound displayed an inhibition constant (Ki) of 2.5 nM. Further, in data set [2], a half-maximal response (EC50) required 57.8 nM and the Emax came out at 108%.

As for `CC(C)C(=O)NC1CCc2c(c3cc(F)ccc3n2Cc2cccc(Cl)c2)C1` (centres unmarked) [Example 9], the melting point fell in the range of 177 to 179 °C. For the same compound, the inhibitory constant (Ki) in data set [1] was 7.2 nM. Also, in data set [2], the EC50 was 113 nM and the Emax turned out to be 62.3%.

On to `CC(C)C(=O)NC1CCc2c(c3cc(F)ccc3n2Cc2cccc(C#N)c2)C1` (centres unmarked) [Example 11], for which the melting point lay in the range of 184 to 186 °C. Besides, the Ki in data set [1] is 61.5 nM. Moreover, in data set [2], the EC50 turned out to be 2180 nM and the Emax amounted to 36.3%.

Regarding `CC(C)C(=O)NC1CCc2c(c3cc(F)ccc3n2Cc2ccc(F)cc2)C1` (centres unmarked) [Example 12], the melting point was 166 to 168 °C. The Ki in data set [1] stood at 25 nM. Further, in data set [2], the concentration for a half-maximal effect (EC50) turned out to be 186 nM and the Emax came to 50%.

Regarding `CC(C)C(=O)NC1CCc2c(c3cc(F)ccc3n2Cc2ccc(Cl)cc2)C1` (centres unmarked) [Example 13], the melting point lay in the range of 188 to 190 °C. In data set [1], this compound registered a Ki of 33.5 nM. In data set [2], the EC50 was 1030 nM and the Emax amounted to 55.5%.

Compound `CC(C)C(=O)NC1CCc2c(c3cc(F)ccc3n2Cc2ccc(C#N)cc2)C1` (centres unmarked) [Example 14] gave a melting point of 181 to 184 °C. Further, affinity in data set [1] was put at a Ki of 81.4 nM. Besides, in data set [2], the midpoint of the response, the EC50, lay at 927 nM and the Emax stood at 36.4%.

As to `COc1ccc(Cn2c3c(c4cc(F)ccc42)CC(NC(=O)C(C)C)CC3)cc1` (centres unmarked) [Example 15], the melting point is 178 to 181 °C. The compound further yielded a Ki in data set [1] of 275 nM. Moreover, the Emax in data set [2] was 15.3%.

Regarding `CC(C)C(=O)NC1CCc2c(c3cc(Cl)ccc3n2Cc2ccccc2F)C1` (centres unmarked) [Example 17], the melting point was 190 to 193 °C. In data set [1], this compound yielded a Ki of 8.6 nM. Moreover, in data set [2], the concentration giving a half-maximal response (EC50) amounted to 148 nM and the Emax is 62.1%.

Compound `CC(C)C(=O)NC1CCc2c(c3cc(Cl)ccc3n2Cc2ccccc2Cl)C1` (centres unmarked) [Example 18] displayed a melting point of 197 to 199 °C. In data set [1], this compound returned a Ki of 10.5 nM. Besides, in data set [2], it took 153 nM to reach a half-maximal effect (EC50) and the Emax is 82.1%.

For the compound `COc1ccccc1Cn1c2c(c3cc(Cl)ccc31)CC(NC(=O)C(C)C)CC2` (centres unmarked) [Example 19, N-[6-chloro-9-(2-methoxy-benzyl)-2,3,4,9-tetrahydro-1H-carbazol-3-yl]-isobutyramide], the melting point was in the range of 141 to 149 °C. This compound showed a Ki in data set [1] of 37.8 nM. In addition, in data set [2], the EC50 was 245 nM and the Emax is 63.2%.

Take `CC(C)C(=O)NC1CCc2c(c3cc(Cl)ccc3n2Cc2cccc(Cl)c2)C1` (centres unmarked) [Example 22]: the melting point lay within 187 to 189 °C. The affinity in data set [1], expressed as Ki, was 3.5 nM. In data set [2], the half-maximal effective concentration (EC50) was found to be 75.7 nM and the Emax was found to be 74.7%.

Compound `CC(C)C(=O)NC1CCc2c(c3cc(Cl)ccc3n2Cc2ccc(Cl)cc2)C1` (centres unmarked) [Example 26] showed a melting point of 176 to 178 °C. In data set [1], this compound showed a Ki of 16.6 nM. Also, in data set [2], a half-maximal response (EC50) required 301 nM and the Emax was 33%.

The compound `COc1ccc(Cn2c3c(c4cc(Cl)ccc42)CC(NC(=O)C(C)C)CC3)cc1` (centres unmarked) [Example 27] registered a melting point of 182 to 184 °C. In addition, in data set [1], affinity was put at a Ki of 45.8 nM. Also, in data set [2], the Emax was found to be 23.2%.

With `CC(C)C(=O)NC1CCc2c(c3cc(Cl)ccc3n2Cc2ccc(C#N)cc2)C1` (centres unmarked) [Example 28], the melting point was in the range of 158 to 162 °C. The Ki in data set [1] amounted to 12.8 nM. In data set [2], a half-maximal response (EC50) required 301 nM and the Emax stood at 64.3%.

Compound `CC(C)C(=O)NC1CCc2c(c3cc(Br)ccc3n2Cc2ccccc2F)C1` (centres unmarked) [Example 31] displayed a melting point of 194 to 197 °C. Moreover, the Ki in data set [1] was found to be 5.3 nM. Also, in data set [2], the EC50 was determined as 58.7 nM and the Emax came out at 70.8%.

`CC(C)C(=O)NC1CCc2c(c3cc(Br)ccc3n2Cc2ccccc2C#N)C1` (centres unmarked) [Example 33] came in with a melting point of 240 to 241.5 °C. Moreover, in data set [1], affinity was put at a Ki of 13 nM. In data set [2], the EC50 turned out to be 433 nM and the Emax worked out at 87.3%.

`CC(C)C(=O)NC1CCc2c(c3cc(Br)ccc3n2Cc2cccc(Cl)c2)C1` (centres unmarked) [Example 36] gave a melting point of 186 to 188 °C. Besides, the Ki in data set [1] was determined as 7.6 nM. In addition, in data set [2], it took 20.7 nM to reach a half-maximal effect (EC50) and the Emax came out at 99.4%.

In turn, `COc1cccc(Cn2c3c(c4cc(Br)ccc42)CC(NC(=O)C(C)C)CC3)c1` (centres unmarked) [Example 37] registered a melting point of 176 to 180 °C. The same compound gave an inhibitory constant (Ki) in data set [1] of 9.1 nM. For the same compound, in data set [2], it took 109 nM to reach a half-maximal effect (EC50) and the Emax stood at 95.5%.

Take `CC(C)C(=O)NC1CCc2c(c3cc(Br)ccc3n2Cc2cccc(C#N)c2)C1` (centres unmarked) [Example 38]: the melting point was in the range of 228 to 230 °C. The Ki in data set [1] was found to be 9.7 nM. In addition, in data set [2], the EC50 was 108 nM and the Emax stood at 79.5%.

On to `CC(C)C(=O)NC1CCc2c(c3cc(Br)ccc3n2Cc2ccc(F)cc2)C1` (centres unmarked) [Example 39], for which the melting point fell in the range of 165 to 170 °C. The compound also yielded a Ki in data set [1] of 5.3 nM. Moreover, in data set [2], the response was half-maximal at 28.9 nM (EC50) and the Emax was 76.1%.

In turn, `CC(C)C(=O)NC1CCc2c(c3cc(Br)ccc3n2Cc2ccc(Cl)cc2)C1` (centres unmarked) [Example 40] yielded a melting point of 142 to 149 °C. Further, in data set [1], affinity was put at a Ki of 30.9 nM. Besides, in data set [2], the half-maximal effective concentration (EC50) turned out to be 188 nM and the Emax was 68%.

For the compound `COc1ccc(Cn2c3c(c4cc(Br)ccc42)CC(NC(=O)C(C)C)CC3)cc1` (centres unmarked) [Example 41], the melting point was in the range of 120 to 125 °C. In data set [1], the Ki came to 43.2 nM. In addition, in data set [2], the EC50 amounted to 1820 nM and the Emax came to 46.6%.

Compound `Cc1ccc2c(c1)c1c(n2Cc2ccccc2)CCC(NC(=O)C(C)C)C1` (centres unmarked) [Example 42] came in with a melting point of 197 to 199 °C. For the same compound, in data set [1], the affinity, expressed as Ki, was 63.6 nM. In data set [2], the EC50 was 30.4 nM and the Emax stood at 73%.

Compound `Cc1ccc2c(c1)c1c(n2Cc2ccccc2F)CCC(NC(=O)C(C)C)C1` (centres unmarked) [Example 43] had a melting point of 174 to 176 °C. For the same compound, the affinity in data set [1] corresponds to a Ki of 104 nM. Moreover, in data set [2], a half-maximal effect (EC50) was put at 462 nM and the Emax came to 69.6%.

As to `Cc1ccc2c(c1)c1c(n2Cc2ccccc2Cl)CCC(NC(=O)C(C)C)C1` (centres unmarked) [Example 44], the melting point is 194 °C. Also, affinity in data set [1] was put at a Ki of 94.2 nM. In data set [2], the EC50 came to 305 nM and the Emax stood at 71.1%.
